Results as given in paper PMC4721142, “Randomized controlled studies on the efficacy of antiarthritic agents in inhibiting cartilage degeneration and pain associated with progression of osteoarthritis in the rat” (Arthritis Research & Therapy, 2016).
“And” between values parts separate entries of the source, which are not always exact repeats. Equal values may be shown once.

Assays:
MMT/MCLT rat model of OA [1] = test: MMT/MCLT trial 1 weight bearing (daily morphine 10 mg/kg, tacrolimus 0.3 or 0.6 mg/kg, fluocinolone 5 or 10 μg/kg, clonidine 100 μg/kg, alendronate 10 μg/kg i.p.; curcumin, withaferin 50 mg/kg p.o.); format: in vivo; settings: day 7; low or only dose
Description: Weight bearing (WB; incapacitance) was measured five times per day, once per week, using a Linton incapacitance meter (Stoelting Co., Wood Dale, IL, USA). Rats were acclimated to the meter before study initiation, and, similarly, immediately before WB, the animals were placed in the meter and allowed to acclimate for 2–5 minutes. Each hind paw was placed on a separate force plate so that the force exerted by each side could be averaged over a 5-second interval, and the mean of three readings was taken for each data point. Right paw force was compared with that on the left side for each group to confirm that animals were displaying incapacitance and/or pain behavior. Differences in force (left minus right) and right paw force as a percentage of the total force exerted by both paws were determined and compared between groups.
Following isoflurane anesthesia, the medial collateral ligament was transected just below its attachment to the meniscus in the right knee. The meniscus was cut at its narrowest point away from the ossicles so as not to damage the tibial surface and to ensure that the anterior and posterior meniscus halves were freely movable. […] In trial 2, drugs were administered IA weekly beginning 1 week following surgery. Three weeks postsurgery, animals were humanely killed and their right knees were collected for histopathology. All studies were conducted in accordance with the International Association for the Study of Pain Guidelines and were approved by the Bolder BioPATH IACUC (Boulder, CO, USA) in compliance with regulations before study initiation (IACUC protocol BBP03-006). Those running the studies were blinded to the treatments. See Additional file 1 for further details.
Isoflurane and the right knee area prepared for surgery. A skin incision was made over the medial aspect of the knee and the medial collateral ligament was exposed by blunt dissection and then transected. The medial meniscus was cut through the full thickness to simulate a complete tear and the skin was then closed with suture.
All pharmaceutical agents were prepared and stored as recommended by the supplier. Daily drug preparations were made fresh from stock solutions. […]
In Trial 2 drugs were […]
administered IA weekly beginning one week following surgery. […]
were delivered by gavage and were prepared in 0.3% Methyl Cellulose.
WB was measured five times a day, once a week, using a Linton incapacitance meter (Stoelting Co.) to assess pain behavior. Rats were acclimated to the incapacitance meter prior to study initiation.
Similarly, immediately prior to WB animals were placed in the incapacitance meter and allowed to acclimate for 2-5 minutes. Each hind paw was placed on a separate force plate so that the force exerted by each side could be averaged over a 5 second interval and the mean of three readings taken for each data point. Right paw force was compared to left for each group to confirm that animals were displaying incapacitance / pain behavior. Difference in force (left minus right) and right paw force as a percentage of the total force exerted by both paws were determined and compared between groups. Three weeks after surgery, animals were humanely euthanized and right knees collected for histopathology evaluation.
Figure 2. MMT/MCLT Trial Timeline […]
MMT/MCLT Dosing (once/day)
The study design and animal usage was approved by Bolder BioPATH’s Institutional Animal Care and Use Committee (IACUC) for compliance with regulations prior to study initiation (IACUC […]
Labs. Animals were identified by a distinct mark at the base of the tail delineating group and animal number. After randomization, all cages were labeled with protocol number, group numbers, and animal numbers with appropriate color-coding (see protocol).

MMT/MCLT rat model of OA [2] = test: MMT/MCLT trial 1 histopathology (same doses); format: in vivo; settings: low or only dose
Description: For MMT/MCLT rat knee joints, sections were cut in 200-μm steps; stained with toluidine blue (also with a right and left half per section); and similarly analyzed for cartilage degeneration, proteoglycan loss, collagen damage, and osteophyte formation. Results were averaged across the three sections for an overall semiquantitative score. Regional differences across the tibial plateau were taken into consideration by dividing each section into three zones delineated using an ocular micrometer (outside, middle, and inside). Scores were based on the percentage of area affected within the zone.
Cartilage degeneration in the tibia was scored on a 5-point scale as detailed in the Methods section of Additional file 1. The total extent of degeneration of the tibial plateau was measured (in micrometers) and included an analysis of cell loss, proteoglycan loss, and collagen damage. Significant cartilage degeneration reflecting any degeneration extending through more than 50 % of the cartilage thickness was also measured. Collagen damage across the medial tibial plateau (the most severely affected section of the two halves) was also quantified.
Osteophytes and femoral cartilage degeneration were analyzed as detailed in Additional file 1. Scoring of the osteophytes and categorization into small, medium, and large was performed using an ocular micrometer. The actual osteophyte measurement (tidemark to farthest distance point extending toward the synovium) was also recorded. The femoral cartilage degeneration score and the three-zone sum of the tibial cartilage degeneration scores (mean of three levels) were summed to create a total cartilage degeneration score. The mean osteophyte score for each joint was added to this value to create a total joint score. […]
Histopathology MMT/MCLT Model

SMILES: Clc1cccc(Cl)c1N=C1NCCN1 [Clonidine]
- Weight bearing, hours with significant effect (MMT/MCLT rat model of OA [1]): 1 h
- Bone score (MMT/MCLT rat model of OA [2]; mean): 2.88
- Depth ratio any matrix change, mean (MMT/MCLT rat model of OA [2]; mean): 0.35
- Depth ratio any matrix change, zone 2 (MMT/MCLT rat model of OA [2]; mean): 0.16
- Femoral cartilage degeneration score (MMT/MCLT rat model of OA [2]; mean): 1.29 and 1.29 ± 0.20
- Tibial cartilage degeneration score, 3-zone total (MMT/MCLT rat model of OA [2]; mean): 6.13
- Tibial cartilage degeneration score, zone 1 (MMT/MCLT rat model of OA [2]; mean): 4.13
- Tibial cartilage degeneration score, zone 2 (MMT/MCLT rat model of OA [2]; mean): 2.00
- Tibial cartilage degeneration score, zone 3 (MMT/MCLT rat model of OA [2]; mean): 0.00
- Tibial cartilage degeneration width, significant (MMT/MCLT rat model of OA [2]; mean): 691.67 µm
- Tibial cartilage degeneration width, total (MMT/MCLT rat model of OA [2]; mean): 1175.00 µm
- Tibial osteophyte measure (MMT/MCLT rat model of OA [2]; mean): 540.00 µm
- Tibial osteophyte score (MMT/MCLT rat model of OA [2]; mean): 3.92
- Total joint score (MMT/MCLT rat model of OA [2]; mean): 11.33 and 11.33 ± 0.55
- Total joint score w/o femur (MMT/MCLT rat model of OA [2]; mean): 10.04
- % decrease, bone score (MMT/MCLT rat model of OA [2]; vs saline group): 12%
- % decrease, depth ratio mean (MMT/MCLT rat model of OA [2]; vs saline group): 2%
- % decrease, depth ratio zone 2 (MMT/MCLT rat model of OA [2]; vs saline group): 14%
- % decrease, femoral cartilage degeneration score (MMT/MCLT rat model of OA [2]; vs saline group): 30%
- % decrease, osteophyte measure (MMT/MCLT rat model of OA [2]; vs saline group): -5%
- % decrease, osteophyte score (MMT/MCLT rat model of OA [2]; vs saline group): 0%
- % decrease, significant degeneration width (MMT/MCLT rat model of OA [2]; vs saline group): 5%
- % decrease, tibial score 3-zone total (MMT/MCLT rat model of OA [2]; vs saline group): 6%
- % decrease, tibial score zone 1 (MMT/MCLT rat model of OA [2]; vs saline group): 4%
- % decrease, tibial score zone 2 (MMT/MCLT rat model of OA [2]; vs saline group): 9%
- % decrease, tibial score zone 3 (MMT/MCLT rat model of OA [2]; vs saline group): 100%
- % decrease, total degeneration width (MMT/MCLT rat model of OA [2]; vs saline group): 10%
- % decrease, total joint score (MMT/MCLT rat model of OA [2]; vs saline group): 8%
- % decrease, total joint score w/o femur (MMT/MCLT rat model of OA [2]; vs saline group): 4%
